Structures are written as SMILES. Square brackets hold non-standard residues; d marks the D form. Peptide text beside a SMILES is read from it. 2Nal = N[C@@H](Cc1ccc2ccccc2c1)C(=O)O

Data set [1] has as its system PCa cell lines LNCaP, PC-3 and DU145. Briefly: Cell permeability of c2 by live cell confocal imaging of its autofluorescence. The format is cell-based. To be noted: 100 µM, 24 hours. Here is the method:
The naphthyl groups in the structure of c2 give the compound a unique autofluorescence emission spectral signature, which was characterised (Fig. S3a, b), allowing the direct imaging of c2 internalisation and localisation. […] Internalisation confirmed via z-stack (Fig. S3c).
For all live cell imaging, cells were seeded on a 24-well glass-bottom Senso plates (Greiner Bio-one) and imaged at 37 °C and 5% CO2 with the LSM 800 (Zeiss). For c2 imaging, cells were incubated with c2 100 µM for 24 hours before excitation with 488 nm and emission 500-700 nm detected. For hGIIA entry, PC-3, LNCaP, DU145 and RA57 hGIIA/AF647 in cells were stained with 30 nM DAPI for 10 mins, cells were washed with PBS and then stained with 1 μg/mL of propidium iodide for 10 mins to confirm cell viability. Cells were washed three times with PBS and then cells were incubated with 200 ng/mL hGIIA/AF647, with entry imaged over 16 hours. Imaging parameters were kept consistent across all time points and cell lines.

Data set [2] is described as follows: Pharmacokinetics of c2 after oral administration to Sprague Dawley rats (LC MS/MS). Format: in vivo. The settings on record: 100 mg/kg po. Here is the method:
Rat studies were performed under contract to the accredited animal research establishment ICP Firefly Pty Ltd. (Alexandria, NSW, Australia; Ref. No AW96/042, NSW Dep’t Primary Industries) with ethics approval from the ICP Firefly animal ethics committee. Briefly, male rats (Sprague Dawley, n = 5 / group) were treated with c2 (single dose 100 mg/kg suspended in 0.1% carboxymethylcellulose, po) and housed in metabolic cages. Animals were sacrificed at 1, 2, 8 or 24 h, blood and tissue samples taken for further analysis, with urine and faeces collected for 1, 6 and 16 hours respectively. Following extraction, c2 concentration in plasma was measured using a validated LC MS/MS assay (limit of detection 7.5 ng/mL and lower limit of quantitation 15 ng/mL in plasma, accuracy 98% and imprecision 12.7% at […]).

For data set [3] the following is noted: rat, in vivo, 20 mg/kg.
Procedure: The calculated volumetric do se wa s administered to each rat orally by gav age, using a plastic
Two dose level s of 1 and 20 mg/kg of the te st it em susp ension were administered to each rat
every 3 days (total 10 do ses) for 28 days. This c orresponded to volumetric dose of 10.09 and
10.23 mL/kg. The volumetric dose administered to each animal was calculated on Days 1, 8, 15
Feed consumption was monitored weekly over the 28-day experimental period in all groups
and was continued for a further 2 weeks in the recovery groups (42-day experimental
period). Feed intake was monitored by providing a known mass of feed to each cage and
subtracting the mas s remaining at the end of th e weekly period. Animals were fa sted
overnight on either Day 28 (main groups) or Day 42 (recovery groups).
Data set [4] is described as follows: 28-day oral toxicity study: daily clinical observations. The format is in vivo, male Sprague Dawley rats. On the set-up: key to Clinical observations: NC A, no clinical abnormalities. Here is the method:
3.6. Procedure for test item administration […]
intragastric cannula attached to a 3 mL syringe.
3.7. Observation of animals […]
groups: Day 29; recovery groups: Day 43).
(Appendix C Study Data Spreadsheets). […]
report (Appendix C Study Data Spreadsheets).
3.7.3. Clinical observations […]
groups and on the day of sa crifice. […]
and abnormal behaviour. Skin and fur, eyes and mucous membranes, respiratory, […]
patterns were monitored. Particular attention was paid to observation of tremor, convulsion, salivation, diarrhoea, lethargy, sleep and coma.
3.7.4. Detailed clinical examinations […]
the report (Appendix C Study Data Spreadsheets). […]

A short description of data set [5]: Toxicity and serum enzyme levels in PCa xenograft model mice. Format: in vivo. Here is the method:
Fig. 1 Derived from the structure of hGIIA, cF and c2 are orally absorbed, cell permeable and non-toxic. a Structure of hGIIA showing disulphide bonds (yellow) and the location of the peptide sequence ^70FLSYK^74 (cyan), which was cyclised to produce pentapeptide cF, then modified to produce c2. b Plasma concentrations of tritiated cF (red) and c2 (blue) following subcutaneous (sc) administration (circles) or oral (po) administration (squares) at 5 mg/kg to BALB/c mice (mean ± SE, n = 4 per time point). Tissue concentrations of c cF and d c2 following sc administration determined in the liver (blue) and kidney (brown) (mean ± SE). Dashed lines indicate estimated background levels of tritium in tissues due to tissue blood content (10% of peak plasma concentration). e–i Following po administration of c2 at 100 mg/kg to male rats (n = 5 per group), levels of c2 were measured in e plasma, f kidney, g faeces, h urine and i liver at timepoints indicated via LCMS/MS (mean ± SE). j Serum enzyme levels of markers of kidney function (creatinine), liver damage (AST and ALT) and heart damage (CK) in PCa xenograft model mice in response to treatment with vehicle (po, 3 x weekly for 6.1 ± 1.6 weeks), cF (10 mg/kg, po, 3 x weekly for 5.4 ± 0.9 weeks) or c2 (10 mg/kg, po, 3 x weekly for 4.8 ± 0.8 weeks) (n = 4, mean ± SE). Data were obtained by the South Eastern Area Laboratory Services Pathology Laboratory at Prince of Wales Hospital, Randwick, Australia. k PCa cell lines LNCaP, PC-3, and DU145 cells incubated with 100 µM c2 (green) for 24 hours with DAPI (blue), scale bar 10 µm (representative cells of n = 3 biological replicates, 5 cells per replicate).
A key failing of previous enzymatic inhibitors of hGIIA was toxicity, resulting in increased incidence of myocardial infarction in a phase III clinical trial. Thus, the toxicity profile of novel hGIIA inhibitors is critically important in evaluating new inhibitors. […] Extensive histopathology was performed on all animals in the control and high dose groups sacrificed on day 29, with no difference observed between the treated groups and the vehicle control group by any measure. […] In light of the toxicity associated with the myocardial infarction study, data from this c2 toxicity study relevant to heart toxicity are shown in Table 1. Heart wet weight was not affected by either low or high dose relative to vehicle, indicating the compound has no significant pro-hypertrophy effect at these doses. The lack of effect of c2 on gross necropsy or histopathology scores also supports the preclinical safety of the compound in the heart. Importantly, c2 has no effect on serum potassium levels or the Na/K ratio, since hypokalemia (low potassium) is highly arrythmogenic. […] It is of interest also that serum alanine transaminase is unaffected by c2 at the doses tested, since this marker was raised three-fold over the normal range in 6.3-fold more patients on varespladib than placebo in the VISTA acute coronary syndrome trial of this sPLA2 inhibitor [13].

For `CC(C)C[C@@H]1NC(=O)[C@H](Cc2ccc3ccccc3c2)NC(=O)[C@H](CCCNC(=N)N)NC(=O)[C@H](Cc2ccc3ccccc3c2)NC(=O)[C@H](CO)NC1=O` [c2, cyclo-((2-Nal)-Leu-Ser-(2-Nal)-Arg)] (cyclo([2Nal]LS[2Nal]R)), the “c2 detection in cells” value in data set [1] is reported as “detected in all cell lines”. In data set [2], the “distribution after oral dosing” value was “presence in the plasma, kidney and liver”. Also, the excretion entry in data set [2] is “majority excreted in faeces”. The “time of peak in urine” value in data set [2] was found to be 2 h. The compound also displayed a Mean feed intake/cage in data set [3] of 5180 g. The clinical signs entry in data set [4] (1 and 20 mg/kg) is “did not have an adverse effect”. The Clinical observations result in data set [4] (Day 1-7, Gr 2, 1 mg/kg) was “NC A”; in data set [4] (Day 1-7, Gr 3, 20 mg/kg), “NC A”; in data set [4] (Day 1-7, Gr 5 recovery, 20 mg/kg), “NC A”; in data set [4] (Day 8-14, Gr 2, 1 mg/kg), “NC A”; in data set [4] (Day 8-14, Gr 3, 20 mg/kg) it was “NC A”; in data set [4] (Day 8-14, Gr 5 recovery, 20 mg/kg) it was “NC A”. The Clinical observations result in data set [4] (Day 15-21, Gr 2, 1 mg/kg) is “NC A”; in data set [4] (Day 15-21, Gr 3, 20 mg/kg), “NC A”; in data set [4] (Day 15-21, Gr 5 recovery, 20 mg/kg) it was “NC A”; in data set [4] (Day 22-28, Gr 2, 1 mg/kg) it was “NC A”; in data set [4] (Day 22-28, Gr 3, 20 mg/kg), “NC A”; in data set [4] (Day 22-28, Gr 5 recovery, 20 mg/kg) it was “NC A”. In addition, the Clinical observations entry in data set [4] (Day 29-35, Gr 5 recovery, 20 mg/kg) is “NC A”; in data set [4] (Day 36-43, Gr 5 recovery, 20 mg/kg), “NC A”. For the same compound, the “serum creatinine, aspartate aminotransferase, alanine aminotransferase, creatine kinase levels” value in data set [5] (10 mg/kg po thrice weekly) is “no significant changes”. Further, the damage to organs entry in data set [5] (10 mg/kg thrice weekly for 10 weeks) is recorded as “no observable damage to organs”. Besides, in data set [5] (max dosages of 10 mg/kg thrice weekly for 10 weeks), the gross toxicity result is recorded as “No gross toxicity”.

The values above are taken from article PMC12876990, “Targeting secreted PLA2 interactions with EGFR and vimentin to arrest prostate tumour growth” (Cell Death & Disease, 2025).
